{"source": "paper PMC11981937", "about": "(Nature, 2025)", "key": {"SARS-CoV-2": {"system": "SARS-CoV-2", "type": "in vivo, Syrian golden hamster"}, "[1]": {"test": "Post-exposure Syrian golden hamster model, body weight", "conditions": "in vivo, 75 mg/kg"}, "Pg-CoV": {"system": "Pg-CoV", "test": "microbe, parasite or virus in culture", "type": "cell-based", "conditions": "Pangolin coronavirus"}, "in vivo": {"test": "in vivo", "conditions": "Syrian golden, hamster; for concentration at 0.05 h / concentration at 1 h / concentration at 2 h / concentration at 4 h / concentration at 7 h / concentration at 24 h / concentration at 12 h / concentration at 0.5 h: female"}, "[2]": {"conditions": "75 mg/kg BID, 48 h post exposure, listed as 87009676-AAA"}, "[3]": {"conditions": "po, 50 mg/kg, individual animal"}}, "note": "Where “and” joins values, the source holds several entries; their conditions need not be identical. Identical values can stand only once. Entries after “also recorded” stand apart in the source; their conditions may differ."}
{"smiles": "C[C@H]1Cn2ncc(C(=O)Nc3cccc(C#N)c3)c2C(=O)N1c1ccc(C(F)(F)c2ccccc2)cc1", "note": "[JNJ-9676, (S)-N-(3-cyanophenyl)-5-(4-(difluoro(phenyl)methyl)phenyl)-6-methyl-4-oxo-4,5,6,7-tetrahydropyrazolo[1,5-a]pyrazine-3-carboxamide]", "values": [{"measurement": "Infectious virus in the lung (TCID50), Copy number, individual animal", "setting": "SARS-CoV-2; [2]", "value": "4.79E+01 and 7.10E+02 and 4.67E+01 and 2.27E+01 and 3.31E+01"}, {"measurement": "Infectious virus in the lung (TCID50), Log 10, individual animal", "setting": "SARS-CoV-2; [2]", "value": "1.68 Log 10 and 2.85 Log 10 and 1.67 Log 10 and 1.36 Log 10 and 1.52 Log 10"}, {"measurement": "Viral load (viral RNA) in the lung, Copy number, individual animal", "setting": "SARS-CoV-2; [2]", "value": "5.20E+06 and 3.10E+06 and 6.15E+07 and 1.50E+08 and 2.86E+07"}, {"measurement": "Viral load (viral RNA) in the lung, Log 10, individual animal", "setting": "SARS-CoV-2; [2]", "value": "6.72 Log 10 and 6.49 Log 10 and 7.79 Log 10 and 8.18 Log 10 and 7.46 Log 10"}, {"measurement": "efficacy (in words)", "setting": "SARS-CoV-2; hamster, in vivo", "value": "efficacious; also recorded: significant efficacy"}, {"measurement": "reduction of infectious virus in the lung", "setting": "SARS-CoV-2; hamster, in vivo", "value": "1.8 log10[TCID50 per mg lung]"}, {"measurement": "Infectious virus in the lung, reduction relative to vehicle", "setting": "SARS-CoV-2; hamster, in vivo, 75 mg/kg", "value": "1.65 (p=0.0003) log10 TCID50/mg lung and 2.00 (p<0.0001) log10 TCID50/mg lung and 1.83 (p<0.0001) log10 TCID50/mg lung and 1.65 (p=0.0003) log10 TCID50/mg lung and 2.00 (p<0.0001) log10 TCID50/mg lung and 1.83 (p<0.0001) log10 TCID50/mg lung"}, {"measurement": "Viral load in the lung, reduction relative to vehicle", "setting": "SARS-CoV-2; hamster, in vivo, 75 mg/kg", "value": "2.38 (p=0.0004) log10 copies/mg lung and 2.32 (p=0.0005) log10 copies/mg lung and 1.38 (p>0.05) log10 copies/mg lung and 2.38 (p=0.0004) log10 copies/mg lung and 2.32 (p=0.0005) log10 copies/mg lung and 1.38 (p>0.05) log10 copies/mg lung"}, {"measurement": "Average body weight change (%) on day 4 compared to day 0", "setting": "[1]", "value": "-0.615% and -5.840% and -3.968%"}, {"measurement": "EC50", "setting": "Pg-CoV", "value": "4 to 6", "unit": "nM"}, {"measurement": "Vd", "setting": "in vivo", "value": 7.9, "unit": "L/kg"}, {"measurement": "clearance", "setting": "in vivo", "value": 9, "unit": "mL/min/kg"}, {"measurement": "half-life", "setting": "in vivo", "value": 780, "unit": "min"}, {"measurement": "bioavailability", "setting": "in vivo; po", "value": "> 50", "unit": "%"}, {"measurement": "concentration at 0.05 h", "setting": "in vivo; iv, 1 mg/kg, average", "value": 555, "unit": "ng/mL"}, {"measurement": "concentration at 1 h", "setting": "in vivo; iv, 1 mg/kg, average", "value": 240, "unit": "ng/mL"}, {"measurement": "concentration at 2 h", "setting": "in vivo; iv, 1 mg/kg, average", "value": 186, "unit": "ng/mL"}, {"measurement": "concentration at 4 h", "setting": "in vivo; iv, 1 mg/kg, average", "value": 83.8, "unit": "ng/mL"}, {"measurement": "concentration at 7 h", "setting": "in vivo; iv, 1 mg/kg, average", "value": 47.7, "unit": "ng/mL"}, {"measurement": "concentration at 24 h", "setting": "in vivo; iv, 1 mg/kg, average", "value": 19.2, "unit": "ng/mL"}, {"measurement": "concentration at 12 h", "setting": "in vivo; iv, 1 mg/kg, average, female hamster, IV 1 mg/kg, 12 h, n=3", "value": 25.1, "unit": "ng/mL"}, {"measurement": "concentration at 0.05 h", "setting": "in vivo; iv, 1 mg/kg, individual animal", "value": 558, "unit": "ng/mL"}, {"measurement": "concentration at 1 h", "setting": "in vivo; iv, 1 mg/kg, individual animal", "value": 268, "unit": "ng/mL"}, {"measurement": "concentration at 2 h", "setting": "in vivo; iv, 1 mg/kg, individual animal", "value": 170, "unit": "ng/mL"}, {"measurement": "concentration at 4 h", "setting": "in vivo; iv, 1 mg/kg, individual animal", "value": 75.9, "unit": "ng/mL"}, {"measurement": "concentration at 7 h", "setting": "in vivo; iv, 1 mg/kg, individual animal", "value": 45.4, "unit": "ng/mL"}, {"measurement": "concentration at 12 h", "setting": "in vivo; iv, 1 mg/kg, individual animal", "value": 26.7, "unit": "ng/mL"}, {"measurement": "concentration at 24 h", "setting": "in vivo; iv, 1 mg/kg, individual animal", "value": 20.1, "unit": "ng/mL"}, {"measurement": "concentration at 0.5 h", "setting": "in vivo; po, 5 mg/kg, average", "value": 68.1, "unit": "ng/mL"}, {"measurement": "concentration at 1 h", "setting": "in vivo; po, 5 mg/kg, average", "value": 114, "unit": "ng/mL"}, {"measurement": "concentration at 2 h", "setting": "in vivo; po, 5 mg/kg, average", "value": 220, "unit": "ng/mL"}, {"measurement": "concentration at 4 h", "setting": "in vivo; po, 5 mg/kg, average", "value": 264, "unit": "ng/mL"}, {"measurement": "concentration at 7 h", "setting": "in vivo; po, 5 mg/kg, average", "value": 176, "unit": "ng/mL"}, {"measurement": "concentration at 12 h", "setting": "in vivo; po, 5 mg/kg, average", "value": 129, "unit": "ng/mL"}, {"measurement": "concentration at 24 h", "setting": "in vivo; po, 5 mg/kg, average", "value": 82.6, "unit": "ng/mL"}, {"measurement": "concentration at 0.5 h", "setting": "in vivo; po, 5 mg/kg, individual animal", "value": 71, "unit": "ng/mL"}, {"measurement": "concentration at 1 h", "setting": "in vivo; po, 5 mg/kg, individual animal", "value": 95.4, "unit": "ng/mL"}, {"measurement": "concentration at 2 h", "setting": "in vivo; po, 5 mg/kg, individual animal", "value": 230, "unit": "ng/mL"}, {"measurement": "concentration at 7 h", "setting": "in vivo; po, 5 mg/kg, individual animal", "value": 142, "unit": "ng/mL"}, {"measurement": "concentration at 12 h", "setting": "in vivo; po, 5 mg/kg, individual animal", "value": 89.2, "unit": "ng/mL"}, {"measurement": "concentration at 12 h", "setting": "in vivo; po, 5 mg/kg, individual animal, female hamster, PO 5mg/kg, 12 h", "value": 145, "unit": "ng/mL"}, {"measurement": "concentration at 0.5 h", "setting": "in vivo; po, 50 mg/kg, average", "value": 801, "unit": "ng/mL"}, {"measurement": "concentration at 1 h", "setting": "in vivo; po, 50 mg/kg, average", "value": 1060, "unit": "ng/mL"}, {"measurement": "concentration at 4 h", "setting": "in vivo; po, 50 mg/kg, average", "value": 2430, "unit": "ng/mL"}, {"measurement": "concentration at 7 h", "setting": "in vivo; po, 50 mg/kg, average", "value": 2080, "unit": "ng/mL"}, {"measurement": "concentration at 24 h", "setting": "in vivo; po, 50 mg/kg, average", "value": 655, "unit": "ng/mL"}, {"measurement": "concentration at 2 h", "setting": "in vivo; po, 50 mg/kg, average, female hamster, PO 50mg/kg, 2 h, n=3", "value": 1760, "unit": "ng/mL"}, {"measurement": "concentration at 12 h", "setting": "in vivo; po, 50 mg/kg, average, female hamster, PO 50mg/kg, 12 h, n=3", "value": 1200, "unit": "ng/mL"}, {"measurement": "concentration at 0.5 h", "setting": "in vivo; [3]", "value": 680, "unit": "ng/mL"}, {"measurement": "concentration at 1 h", "setting": "in vivo; [3]", "value": 829, "unit": "ng/mL"}, {"measurement": "concentration at 2 h", "setting": "in vivo; [3]", "value": 1580, "unit": "ng/mL"}, {"measurement": "concentration at 4 h", "setting": "in vivo; [3]", "value": 2230, "unit": "ng/mL"}, {"measurement": "concentration at 7 h", "setting": "in vivo; [3]", "value": 1510, "unit": "ng/mL"}, {"measurement": "concentration at 1 h", "setting": "in vivo; po, 50 mg/kg, individual animal, female hamster, PO 50mg/kg, 1 h", "value": 1450, "unit": "ng/mL"}]}
